How the values were obtained:
[1] = tested on: Compound 48/80 Induced Anaphylactoid Reaction; test: Anaphylactoid activity: inhibition of compound 48/80 induced anaphylactoid reaction in rats; type: in vivo, Wister rats; settings: Rattus norvegicus, po, dosed 2 hours before compound 48/80 (2 mg/kg i.v.), propranolol 5 mg/kg i.p., at least 50 animals, read-out: ED50, dose providing 50% protection against death induced by compound 48/80
Procedure: Non-fasted, Wister rats (180-300 g) were dosed with the test compound (i.p. or p.o.) 2 hours before compound 48/80 challenge. One hour prior to challenge, 5 mg/kg i.p. of propranolol was administered. The anaphylactoid inducing agent, compound 48/80 which is well known in the art of pharmacology, was given intravenously at 2 mg/kg and the animals were monitored for symptoms of respiratory distress.
Data were analyzed by Probit determinations. The response was quantitated by determining the dose of test compound which protected 50% of the animals from death at a given time point.
Agents which block the effects of compound 48/80 are commonly classified as inhibitors of anaphylactic mediators or inhibitors of the release of anaphylic mediators.

histamine = test: In vivo antihistaminic activity: protection of guinea pigs against histamine aerosol challenge; design: species or system Guinea pigs (Hartley, male)
LD50 in rats = settings: rat, in vivo

| Structure (SMILES) | ED50 [1] [mg/kg] | ED50 (histamine; Cavia porcellus, po, 4 hr post dosing, guinea pigs, 0.25% histamine aerosol, at least 40 animals) [mg/kg] | antihistaminic activity in vivo (histamine; in words) | duration of antihistaminic activity (histamine; in words) | LD50 (LD50 in rats; ip) [mg/kg] | LD50 (LD50 in rats; po) [mg/kg] |
| --- | --- | --- | --- | --- | --- | --- |
| Cc1ccc(/C(=C\CN2CCCC2)c2ccccn2)cc1 [Triprolidine] | > 30 |  |  |  |  |  |
| CN(C)CC/C=C1/c2ccccc2COc2ccc(C(=O)O)cc21 [Compound 1, (Z)-11-(3-(Dimethylamino)propylidene)-6,11-dihydrodibenz[b,e]oxepin-2-carboxylic acid] | 1.1 | 0.15 | extremely good antihistaminic activity in vivo | very long durations of antihistamic activity | ~210 | > 500 |
| CN(C)CCC=C1c2ccccc2COc2ccccc21 [Doxepin, 11-(3-(dimethylamino)propylidene)-6,11-dihydrodibenz[b,e]oxepin] | 0.15 |  |  |  |  |  |
